These results are taken from patent publication US9777037B2, “Neurosteroid compounds” (BIONATURE E. A. LTD., priority 2007, dated 2017).

In assay [1] the test system is Bcl-2 protein and ERK1/2 kinase. Briefly: Western blot of Bcl-2 and phosphorylated ERK1/2 in serum deprived PC12 cells. It is filed as cell-based, rat. As to conditions: 8 hours, 10 nM BNN-124 or 20 ng/ml NGF (FIG. 9). The procedure: Neural-crest derived PC12 cells were cultured for 8 hours in the absence of serum, but supplemented with 10 nM of synthetic neurosteroids of 20 ng/ml of NGF. At the end of incubation cell lysates were subjected to electrophoresis through a 12% SDS-polyacrylamide gel. Then proteins were transferred to nitrocellulose membranes, which were processed according to standard Western blotting procedures. To detect protein levels, membranes were incubated with the appropriate antibodies: Bcl-2 (Santa Cruz Biotechnology Inc., Santa Cruz, Calif., dilution 1:100), phosphorylated ERK1/2 (Cell Signalling Technology Inc., Beverly, Mass., dilution 1:100). To normalize for protein content, the blots were stripped and stained with anti-actin or anti-total ERK1/2 antibodies (Chemicon, Temecula, Calif., dilution 1:400).
(Immunoblotting shows a protein as a band on a membrane.)

For assay [2], the system named is DHEA specific membrane receptors. The experiment in a line: [3H]DHEA competition binding on isolated PC12 cell membranes. Set-up: species or system rat. As to conditions: for Kd: isolated PC12 cell membranes, 5 nM [3H]DHEA (FIG. 5). The method, then: PC12 rat sympathoadrenal cells were cultured in 225 cm^2 flasks and, after washing twice with PBS, they were detached from the flasks by vigorous shaking. After a centrifugation at 1500 g, they were homogenized by sonication, in a 50 mM Tris-HCl buffer pH 7.4 at 4° C., containing freshly added protease inhibitors (1 mM PMSF and 1 μg/ml aprotinin). Unbroken cells were removed by centrifugation at 1500 g (10 min at 4° C.), and membranes were collected by centrifuging at 102,000 g for 1 hr at 4° C. Membranes were washed once with Tris-HCl, briefly acidified at 4° C. (for 3 min) with 50 mM glycine (pH 5.0), and re-suspended in the same buffer. Protein content was assayed by the method of Bradford, using reagents from Bio-Rad (Hercules, Calif.). Membranes (at a final concentration of 2 mg/ml) were incubated with 5 nM [^3H]DHEA, in the absence (to determine the total binding) or presence of unlabeled neurosteroids and their synthetic spiro analogs, at concentrations varying from 10^−12 to 10^−6 M and at a final volume of 100 μl, in Tris-HCl buffer (50 mM, pH 7.4). Following a […] incubation in a water bath, at 37° C., membranes were collected on GF/B filters, prewet in 0.5% PEI solution at 4° C. The filters were washed three times with ice-cold Tris-HCl, dried, supplemented with scintillation medium (Sigma Hellas, Athens, Greece) and counted in a β-scintillation counter (Perkin Elmer, Foster City, Calif.) with 60% efficiency for Tritium.

Assay [3] has as its system Bcl-2 and Bcl-xL proteins. Briefly: Western blot of anti-apoptotic Bcl-2 and Bcl-xL proteins in serum-deprived PC12 cells. The assay is classed as cell-based, rat. The note with it: 10 nM neurosteroid (FIG. 4). The method, then:
Neural-crest derived PC12 cells were cultured for 8 hours in the absence of serum, but supplemented with 10 nM of various neurosteroids. At the end of incubation cell lysates were subjected to electrophoresis through a 12% SDS-polyacrylamide gel. Then, proteins were transferred to nitrocellulose membranes, which were processed according to standard Western blotting procedures. To detect protein levels, membranes were incubated with the appropriate antibodies: Bcl-2, (Santa Cruz Biotechnology Inc., Santa Cruz, Calif., dilution 1:100) Bcl-xL (Cell Signalling Technology Inc., Beverly, Mass., dilution 1:100). A PC-based Image Analysis program was used to quantify the intensity of each band (Image Analysis, Inc., Ontario, Canada). To normalize for protein content, the blots were stripped and stained with anti-actin antibodies (Chemicon, Temecula, Calif., dilution 1:400); the concentration of each target protein was normalized versus actin.

Assay [4] has as its system Neural-crest derived PC12 cells. Briefly: APOPercentage apoptosis assay, serum-deprivation induced apoptosis of PC12 cells. The assay is classed as cell-based, rat. As to conditions: for IC50: Rattus norvegicus, PC-12, absence of serum 12 hours, ApoPercentage assay (FIG. 2), read-out: IC50 of anti-apoptotic, cytoprotective effect. The procedure:
Neural-crest derived PC12 cells were maintained in culture at 5% CO2, at 37° C., in RPMI 1640 medium containing 2 mM L-glutamine, 15 mM HEPES, 100 units/ml penicillin, 0.1 mg/ml streptomycin, 10% horse serum, and 5% foetal calf serum. Serum free medium was supplemented with 1% bovine serum albumin (BSA). Different steroids, used at various concentrations, were initially diluted in ethanol. The final concentration of ethanol in each well, including controls was 0.01%. Conjugate DHEA-BSA was initially diluted in Phosphate Buffer Saline (PBS).
Cells were cultured in the absence of serum for 12 hours, supplemented with DHEA and various synthetic spiro neurosteroids at 10 nM. Cell apoptosis was quantitated with two different methods: The APOPercentage Apoptosis Assay (Biocolor Ltd., Belfast, N. Ireland) was used to quantify apoptosis, according to the manufacturer's instructions. Apoptosis was quantified following cell lysis by measuring the dye incorporated in apoptotic cells at 550 nm (reference filter 620 nm) using a colour filter microplate colorimeter (Dynatech MicroElisa reader, Chantilly, Va.) (see FIGS. 1 and 2). FACS Analysis: FACS analysis of apoptotic cells was performed according to our protocol (Proc Natl Acad Sci USA 101,8209 (2004)). Flow cytometry was performed with FACScan (Becton Dickinson, Heidelberg, Germany) and the results were analysed with the FACScan and Cell Quest softwares (see FIG. 3).

For the next assay, the system named is progenitor neural cells. The experiment in a line: Neurogenesis of progenitor neural cells isolated from mouse fetal brain. The note with it: 100 nM, 24 hours (FIG. 8). The assay is classed as cell-based. The method, then:
This effect appeared to be EGF/bFGF dependent. […] The extent of migration of the first days in culture was mostly normalised as in most conditions cells had migrated out of the sphere to the periphery. The photographs shown (FIG. 7) were obtained on the 6th day of culture where migration effects are not so dramatic but still evident. Additionally, progenitor neural cells, isolated from mouse fetal brain, were exposed for 24 hours to 100 nM of BNN-93 or to the vehicle (control).

Assay [5] concerns Dopaminergic neural-crest derived PC12 cells. The experiment in a line: Dopamine secretion from dopaminergic PC12 cells (radioimmunoassay). The note with it: 10^-7 M; for dopamine levels in culture media, long-term: 3 to 48 hours (FIG. 6B); for stimulation of dopamine secretion, short-term: 5 to 30 min, effect within 10 min (FIG. 6A). It is filed as cell-based, rat. The procedure:
Dopaminergic neural-crest derived PC12 cells were grown in 6-well plates, coated with poly-L-lysine, at a concentration of 10^6 cells/well. Cells were incubated with neurosteroids or the vehicle for several time periods; for the short-term experiments the incubation time ranged from 5 to 30 minutes and for the long-term from 3 to 48 hours. 1 mL of supernatants were transferred to tubes containing 200 μl 0.1 M HCl for measurement of dopamine, which was measured by radioimmunoassay (TriCat™ RIA, RE29395, IBL Immuno Biological Lab., Hamburg, Germany) using ^125I as a tracer. The analytical sensitivity of the method was 30 pg/ml, its intra-assay CV was 9.5%, and its inter-assay CV was 16.7%. The cross reactivity between dopamine and norepinephrine was <0.013%

Assay [6] has as its system tyrosine hydroxylase mRNA. The experiment in a line: Tyrosine hydroxylase (TH) RT-PCR in dopaminergic PC12 cells. It is filed as cell-based, rat. The note with it: dopaminergic PC12 cells (FIG. 6C). The procedure: Tyrosine Hydroxylase (TH) RT-PCR: Total RNA was extracted from dopaminergic PC12 cells using the Trizol Reagent (Invitrogen Life technologies, CA). One microgram of total RNA was reverse transcribed by the Thermo-Script RT-PCR System (Invitrogen) using random hexamers in a total volume of 20 μl. Two microliters of the RT product was used as a template, amplified by PCR using 2 mM MgCl2, one strength PCR buffer, 0.2 mM of sense and antisense primers, 0.2 mM dNTPs and 2.5 U AmpliTaq Gold DNA polymerase (Perkin Elmer ABD, Foster City, Calif.) in a final reaction volume of 50 μl. PCR was performed in a Perkin Elmer DNA Thermal Cycler. Primers for TH were 5′-[…]-3′ (sense), and 5-[…]-3 (antisense) and for G3PDH were, 5′-[…]-3′ (sense), and 5′-[…]-3′ (antisense). Oligonucleotides were synthesized by MWG-Biotech AG (Munich, Germany). After reverse transcription, the cDNA product was amplified by PCR, at 33 cycles. The cycle number (33) was chosen such that amplification of the products was in the linear range with respect to the amount of input cDNA. PCR for G3PDH was performed in parallel to assure good quality of RNA and cDNA preparations. Each cycle consisted of 60 s at 92° C. for denaturation, 120 s at 53° C. for annealing, and 180 s at 72° C. for extension (60 s at 98° C., 90 s at 55° C., and 150 s at 72° C. for G3PDH respectively). 10 μl of the amplified products (368 bp for TH and 983 bp for G3PDH) were separated on a 2% agarose gel and visualized by ethidium bromide staining.

In assay [7] the test system is Primary cortical neurospheres. Briefly: Migration of neural cells from primary cortical neurospheres. It is filed as cell-based, mouse. The note with it: 10^-7 M, within 24-48 hrs of culture, EGF/bFGF dependent (FIG. 7). The procedure:
Primary cortical neurospheres (21d) generated from wild type mice were cultured attached on PLL and laminin-coated coverslips in serum-free media in the presence or absence of EGF and bFGF (20 ng/ml final concentration each). For the screen, the media was supplemented with ethanol, retinoic acid (at-RA), DHEA, or the synthetic spiro neurosteroid BNN-93, at a final concentration of 10^−7M.

The Kd is the free concentration of one partner at which half of the binding sites on the other are occupied at equilibrium, for simple one-to-one binding. Higher therefore signals lower affinity. A word on the IC50: it is the concentration needed to halve the response being measured.

For the compound NGF: nerve growth factor, the “induction of anti-apoptotic Bcl-2 protein and phosphorylation of ERK1/2 kinase” value in assay [1] is “inducing”.

Consider `C[C@]12CC[C@H](O)CC1=CCC1C2CC[C@@]2(C)C1CC[C@@]21OC1CO` (stereo partly drawn) [BNN-93, 3β,21-dihydroxy-17α,20-epoxy-5-pregnene], for which the “displacement of specific [3H]DHEA binding” value in assay [2] (at 1 μM, PC12 cell membranes) was “approximately 60%”. The compound also displayed a dissociation constant Kd in assay [2] of 11.2 nM. Moreover, in assay [3], the “levels of anti-apoptotic Bcl-2 and Bcl-xL proteins” value is given as “preventing this effect”. Besides, the half-maximal inhibitory concentration (IC50) in assay [4] came out at 4.16 nM. The “neurogenesis and differentiation of progenitors to neural cells” value in the assay on progenitor neural cells is “stimulated neurogenesis and differentiation”. Moreover, in assay [5], the “dopamine levels in culture media, long-term” value is “increase of dopamine levels peaking at 24 h” and the “stimulation of dopamine secretion, short-term” value is “doubling their levels”. The “induction of tyrosine hydroxylase mRNA” value in assay [6] was “strong induction”. Besides, the “migration of neural cells to the periphery of the neurospheres” value in assay [7] is “extensive migration”.

As to `C[C@]12CC[C@H](OS(=O)(=O)O)CC1=CC[C@@H]1[C@@H]2CC[C@]2(C)C(=O)CC[C@@H]12` [DHEAS, reference compound], in assay [5], the “dopamine levels in culture media, long-term” value was “increase of dopamine levels peaking at 24 h”. Besides, in assay [6], the “induction of tyrosine hydroxylase mRNA” value is on record as “strong induction”.

For `C[C@]12CC[C@H](O)CC1=CC[C@@H]1[C@@H]2CC[C@]2(C)C(=O)CC[C@@H]12` [DHEA, dehydroepiandrosterone, reference compound], in assay [2] (at 1 μM, PC12 cell membranes), the “competition for [3H]DHEA binding” value is given as “Almost complete competition”. Moreover, binding in assay [2] was characterised by a dissociation constant (Kd) of 1.1 nM. Also, the “levels of anti-apoptotic Bcl-2 and Bcl-xL proteins” value in assay [3] is reported as “preventing this effect”. Further, the IC50 in assay [4] stood at 0.15 nM. Also, the “reversal of serum deprivation-induced apoptosis” value in assay [4] (absence of serum 12 hours, steroids at 10 nM (FIG. 1)) was about 50%. Also, the “stimulation of dopamine secretion, short-term” value in assay [5] was “doubling their levels”. Besides, the “migration of neural cells to the periphery of the neurospheres” value in assay [7] was “extensive migration”.
